Several values for one entry are separate records, joined by “and”; a condition that tells them apart may be missing. Equal entries are not always repeated. Where two headings read alike, the source gives them in different places.
Tested on: PBMCs from LTBI donors (IFN-γ production)
Assay type: cell-based, human
Conditions: for Resp. freq.: fraction of 28 LTBI donors responding to epitopes of the antigen; for Resp. freq. / Total SFC: ex vivo IFN-γ ELISPOT; for Total SFC: total spot-forming cells, LTBI donors
[1] = individual MTB epitope peptide, one value per responding LTBI donor

AAAQASAAAAAYEAA
SFC [1]: 20.0

AAFDYADGAAEDELS
SFC [1]: 21.7

AAHAGEYGQMVTLRG
SFC [1]: 23.3

AAVIVGSGRIASLYV
SFC [1]: 23.3

ADKNPLFLDEQLTRA
SFC [1]: 45.0

ADVLTMKAVRAATAL
SFC [1]: 41.7

AELFRLQTEFVKLQE
SFC [1]: 85.0

AGAMGAYAAAEAANA
SFC [1]: 111.7

AGGFGGAGAGIANFL
SFC [1]: 20.0

AGISSLIIDPNPMFV
SFC [1]: 88.3

AGTLSTFFGVPLVLT
SFC [1]: 21.7

AGYPAELAYFEVLHE
SFC [1]: 23.3

AHESLCFAGANLIPL
SFC [1]: 25.0

AHLIHFAAANLRNPG
SFC [1]: 30.0

ALEMFYDDDADLSII
SFC [1]: 25.0

ALLWLADQVDAALEK
SFC [1]: 48.3

ALPRLLRRLVIMGGM
SFC [1]: 128.3

ALRILVYSDNVQTRE
SFC [1]: 91.7

ALVEEYLRGLRQAAG
SFC [1]: 30.0

AMNEAFVAMLGASAD
SFC [1]: 31.7

APPNLIRAILRAPVD
SFC [1]: 30.0

APVVILAHGFPELAY
SFC [1]: 23.3

APWQQVLRNLGIDIG
SFC [1]: 96.7

AQEYQALSAQAAAFH
SFC [1]: 41.7

AQIIHRITATARHPG
SFC [1]: 53.3

AQTSQFVMAMINYED
SFC [1]: 26.7

ARFHQQFVQALTASV
SFC [1]: 35.0

ARVFLDSVLPALGEE
SFC [1]: 38.3

ASMSMAAAASPYVGW
SFC [1]: 78.3

ASVGSYAAAEAANAS
SFC [1]: 38.3

AVDAVFVGSCTNGRI
SFC [1]: 46.7

AVITELIAMLRHHHI
SFC [1]: 40.0

AVLEDPYILLVSSKV
SFC [1]: 21.7

AVLLEKIVADEEEHI
SFC [1]: 26.7 and 28.3

AVSIGILLSLIAPLG
SFC [1]: 55.0

AVVVLKRLPDALADG
SFC [1]: 25.0

CLGSHLARLELTLLV
SFC [1]: 91.7

CRGYDVVILDRYVAS
SFC [1]: 21.7

CRRYEVLLIFDEIAT
SFC [1]: 65.0

CSEDLLYLSDLDFDV
SFC [1]: 33.3

DDIPRVLAEAFHIAA
SFC [1]: 31.7

DLDSYLVEITAEVLR
SFC [1]: 23.3

DMTKIVGLRARAKAA
SFC [1]: 35.0

DPINEFFLANTGRPL
SFC [1]: 66.7

DPVKGADEVVAFAEE
SFC [1]: 813.3

DSTVITDGDIVNIDV
SFC [1]: 31.7

DTEVYLDAASLSPFV
SFC [1]: 266.7

DTQSMIVTDHRYVPA
SFC [1]: 33.3

DVIHAFWVPEFLFKR
SFC [1]: 158.3

DVTIRFRRFFSRLQR
SFC [1]: 50.0

EGGNQIVQYLVAQKI
SFC [1]: 25.0

EHFGHERYDAFFSLA
SFC [1]: 66.7

EHIHRPNTNNVGPII
SFC [1]: 65.0

EIYLNTFRHLYGLDC
SFC [1]: 25.0

EKMRVAGRIAAGALA
SFC [1]: 20.0

ELADLIEFARTVNEE
SFC [1]: 43.3

EMLSMLRAMLAPESL
SFC [1]: 40.0

ENFFMFIAEEVREYL
SFC [1]: 23.3 and 65.0

EPGDIIIDGGNALYT
SFC [1]: 35.0

EQMLIDDGILLRKYW
SFC [1]: 178.3

ERYVGLYLPFLDMSF
SFC [1]: 23.3

ESALFFIGVLIVALL
SFC [1]: 55.0

ESGASYAARDALAAA
SFC [1]: 45.0

ESVFAATVAELESLI
SFC [1]: 36.7

ETLYWLAQPGIRESI
SFC [1]: 31.7

EVNIKILIDSLVSAG
SFC [1]: 201.7

FFGQNAPAIAAIEAA
SFC [1]: 20.0 and 21.7

FLMSVGALIIGWLLQ
SFC [1]: 26.7

FRVVISSRFGDIFRG
SFC [1]: 20.0

FSLVNFFDAQVGPLS
SFC [1]: 43.3

GAYAAAEAANVSAAQ
SFC [1]: 176.7

GFTIANHNAAAVGEI
SFC [1]: 140.0

GQQYQAMSAQAAAFH
SFC [1]: 50.0

GSAENFSVVEALADS
SFC [1]: 138.3 and 20.0

GSTINAANAAAALPT
SFC [1]: 36.7 and 190.0

HPQQFIYAGSLSALL
SFC [1]: 35.0

HTVLVATNFFGINTI
SFC: 331.7

IGLVLIAVLVFVPRV
SFC [1]: 38.3

IGSSIGAANAAAAGS
SFC [1]: 45.0

ITPDEGAYAFEALLR
SFC [1]: 28.3

KMAPVLRQIYDQMAE
SFC [1]: 66.7

LDWFCLFSSAAALTG
SFC [1]: 23.3

LLSTRGYITAEKIRS
SFC [1]: 35.0

LPLLVPLRAIPLLGN
SFC [1]: 20.0

LRLLVIALKHNVILN
SFC [1]: 31.7

LTVDAGAYASAEAAN
SFC [1]: 31.7 and 58.3

LVAQEAAAAGTPLVT
SFC [1]: 23.3

LVLVIDDEPQILRAL
SFC [1]: 81.7

LYRPGLVHIYHALTW
SFC [1]: 28.3

MAKTIAYDEEARRGL
SFC [1]: 38.3 and 56.7

MDYFIRMWNQAALAM
SFC [1]: 46.7

NPFPFLRQIIANQQV
SFC [1]: 26.7

NRASLMQLISTNVFG
SFC [1]: 21.7

PPEVNSARVFAGAGS
SFC [1]: 38.3 and 31.7

QAARGIRPLFDDITE
SFC [1]: 21.7

QAFRSRFGENFFYIL
SFC [1]: 31.7

QAVLTATNFFGINTI
SFC [1]: 341.7

QLSAEYASTAAELSG
SFC [1]: 26.7

QRPRMLYDYFHQLFA
SFC [1]: 141.7

QTLVYKGMLTTPQLK
SFC [1]: 40.0

RARQGFRDIEFHPTI
SFC [1]: 45.0 and 28.3

RVIEDALRFYFESHE
SFC [1]: 141.7

RVLLAGWEQFDEPVD
SFC [1]: 101.7

Rv0289: MTB protein, novel CD4 T cell antigen; Cell wall and cell processes, Island 1, Esx-3
Resp. freq.: 29% | Total SFC: 2298 SFC

Rv1243c: MTB protein, novel CD4 T cell antigen; PE/PPE
Resp. freq.: 11% | Total SFC: 114 SFC

Rv2853: MTB protein, novel CD4 T cell antigen; PE/PPE
Resp. freq.: 11% | Total SFC: 85 SFC

Rv3022c: MTB protein, novel CD4 T cell antigen; PE/PPE, Island 2
Resp. freq.: 18% | Total SFC: 109 SFC

SAAGSYAAAEAANAS
SFC [1]: 91.7 and 21.7

SEFNEVFFNDVFVPD
SFC [1]: 41.7

SILDMRQLFDGIDLS
SFC [1]: 26.7

SLAVKTFEDLFAELG
SFC [1]: 23.3

SQVIEAVNLFRANVI
SFC [1]: 33.3

TDNGAMIAAFAAQLV
SFC [1]: 203.3 and 30.0

TGIFGLVLVICVVLI
SFC [1]: 35.0

TVAWTMLGVALSAYE
SFC [1]: 50.0 and 25.0

VDVEDGRVIVDEYQR
SFC [1]: 20.0

YLAWLSTAAAQAEQA
SFC [1]: 145.0 and 100.0

B1: Rv3615c: MTB antigen functionally linked to Esx-1 (Millington et al., 2011); single antigen, not part of an antigenic island (protein, UniProt P9WJD7 2-103, looked up)
ESX-1 secretion-associated …: TENLTVQPERLGVLASHHDNAAVDASSGVEAAAGLGESVAITHGPYCSQFNDTLNVYLTAHNALGSSLHTAGVDLAKSLRIAAKIYSEADEAWRKAIDGLFT
recognition by LTBI donors (result in words): prevalently recognized
